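Exposure lasted 48 hours, with cells grown in 96-well plates and compounds tested at five concentrations. GI50 is the concentration that inhibits growth by half.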 Active and inactive are the calls of the source. No stated cut-off is given here; in the data, active = GI50 up to about 1.1 µM and inactive = higher.
Experiments:
Assay in all cases: NCI anticancer screen, dose series, 48 h
UO-31 = tested on: UO-31
OVCAR-5 = tested on: OVCAR-5
NCI-H460 = tested on: NCI-H460
SK-MEL-2 = tested on: SK-MEL-2
HCT-15 = tested on: HCT-15
786-0 = tested on: 786-0
ACHN = tested on: ACHN
DMS-273 = tested on: DMS-273
OVCAR-8 = tested on: OVCAR-8
HL-60 = tested on: HL-60
LOX IMVI = tested on: LOX IMVI
M14 = tested on: M14
RXF 393 = tested on: RXF 393
HOP-18 = tested on: HOP-18
HCT-116 = tested on: HCT-116
SK-MEL-5 = tested on: SK-MEL-5
DLD-1 = tested on: DLD-1
A549 = tested on: A549
SN12C = tested on: SN12C
HT-29 = tested on: HT-29
HCC 2998 = tested on: HCC 2998
SNB-78 = tested on: SNB-78
CCRF-CEM = tested on: CCRF-CEM
OVCAR-3 = tested on: OVCAR-3
SF-539 = tested on: SF-539
NCI-H23 = tested on: NCI-H23
COLO 205 = tested on: COLO 205
UACC-62 = tested on: UACC-62
SK-MEL-28 = tested on: SK-MEL-28
KM-20L2 = tested on: KM-20L2
IGROV-1 = tested on: IGROV-1
A498 = tested on: A498
UACC-257 = tested on: UACC-257
RPMI-8226 = tested on: RPMI-8226
HOP-62 = tested on: HOP-62
MOLT-4 = tested on: MOLT-4
TK-10 = tested on: TK-10
SW-620 = tested on: SW-620
KM12 = tested on: KM12
EKVX = tested on: EKVX

O=C1c2cccc(NCCCNCCO)c2C(=O)c2cccc(NCCCNCCO)c21
GI50 (UO-31): 9680 nM (inactive) | GI50 (OVCAR-5): 2650 nM (inactive) | GI50 (NCI-H460): 1680 nM (inactive) | GI50 (SK-MEL-2): 1920 nM (inactive) | GI50 (HCT-15): 7310 nM | GI50 (786-0): 1960 nM (inactive) | GI50 (ACHN): 1590 nM (inactive) | GI50 (DMS-273): 2020 nM (inactive) | GI50 (OVCAR-8): 1860 nM (inactive) | GI50 (HL-60): 1360 nM (inactive) | GI50 (LOX IMVI): 2100 nM (inactive) | GI50 (M14): 2090 nM (inactive) | GI50 (RXF 393): 2950 nM (inactive) | GI50 (HOP-18): 2670 nM (inactive) | GI50 (HCT-116): 1560 nM (inactive) | GI50 (SK-MEL-5): 1780 nM (inactive) | GI50 (DLD-1): 3130 nM (inactive) | GI50 (A549): 1990 nM (inactive) | GI50 (SN12C): 1260 nM (inactive) | GI50 (HT-29): 1410 nM (inactive) | GI50 (HCC 2998): 1080 nM (active) | GI50 (SNB-78): 2060 nM (inactive) | GI50 (CCRF-CEM): 1340 nM (inactive) | GI50 (OVCAR-3): 2530 nM (inactive) | GI50 (SF-539): 1860 nM (inactive) | GI50 (NCI-H23): 2990 nM (inactive) | GI50 (COLO 205): 1360 nM (inactive) | GI50 (UACC-62): 1760 nM (inactive) | GI50 (SK-MEL-28): 1960 nM (inactive) | GI50 (KM-20L2): 2340 nM (inactive) | GI50 (IGROV-1): 2560 nM (inactive) | GI50 (A498): 2170 nM (inactive) | GI50 (UACC-257): 3560 nM (inactive) | GI50 (RPMI-8226): 1970 nM (inactive) | GI50 (HOP-62): 2430 nM (inactive) | GI50 (MOLT-4): 1350 nM (inactive) | GI50 (TK-10): 3000 nM (inactive) | GI50 (SW-620): 1460 nM (inactive) | GI50 (KM12): 1920 nM (inactive) | GI50 (EKVX): 2320 nM (inactive)

From ChEMBL document CHEMBL1201862, “PubChem BioAssay data set” (2004)
